Measured values published in patent EP4782444A1, “CRYSTAL FORM OF PYRIMIDINE ANILINE COMPOUND, PREPARATION METHOD, AND USE” (TYK Medicines, Inc., priority 2023, dated 2025).
Like-named read-outs stand apart in the source and are kept apart here.

What was measured:
EGFR exon 20ins = details: advanced non-small cell lung cancer; cited from earlier work
[1] = Solid-state stability study (HPLC and XRPD analysis); assay type: physicochemical
[2] = Pharmacokinetic study in rats, single oral gavage; details: SD rats, 30 mpk
Description: (§1) SD rats received a single oral gavage administration of citrate crystalline form I, mesylate crystalline form I, and free base crystalline form I, respectively. Blood samples were collected at various time points to determine drug concentrations in rat plasma post administration of tested substance and calculate PK-related parameters.
(§2) The prepared test sample solutions were analyzed by the analytical department of the present test facility using LC-MS/MS.
(§3) Animals were fasted (≥10 h) with free access to water from the day before dosing. On the test day, rats were weighed respectively, marked at the tail, and blank blood samples were collected before administration. Blood was collected via tail vein.
(§4) 0.1 mL of whole blood was collected into EDTA-Na2 anticoagulant tubes, inverted 3-4 times to mix well, centrifuged at 10,000 g, 4 °C for 5 min to separate plasma, and stored at - 80 °C until analysis. Blood was collected via tail vein.
(§5) Plasma samples were analyzed by the analytical department of the test facility using LC-MS/MS.

[3] = 37 °C
in vivo = details: rat, po, 30 mg/kg
Description: as §1, §2, §3, §4, §5

[4] = system: exon 20 insertion mutations of EGFR and HER2; details: reported clinical trial results; cited from earlier work

For `C=CC(=O)Nc1cc(Nc2nccc(Nc3cc(Cl)c(F)cc3C(C)(C)O)n2)c(OC)cc1N1CC[C@@H](N(C)C)C1` [DZD9008], the objective response rate (EGFR exon 20ins) is given as 40%.

With `C=CC(=O)Nc1cc(Nc2ncc(C(=O)OC(C)C)c(-c3cn(C)c4ccccc34)n2)c(OC)cc1N(C)[C@@H]1[C@@H]2CN(C)C[C@@H]21` [Citrate crystalline form I] the Appearance ([1]; 25°C/60%RH, day 3) was “Unchanged”, the “Crystalline Form” value ([1]; 25°C/60%RH, day 3, XRPD) was “Unchanged” and the Purity % ([1]; 25°C/60%RH, day 3, open vial) was 98.68%. For the same compound, the Appearance ([1]; 25°C/60%RH, day 7) was “Unchanged”, the “Crystalline Form” value ([1]; 25°C/60%RH, day 7, XRPD) was “Unchanged” and the Purity % ([1]; 25°C/60%RH, day 7, open vial) was 98.61%. For the same compound, the Appearance ([1]; 25°C/95±5%RH, day 3) was “Unchanged”, the “Crystalline Form” value ([1]; 25°C/95±5%RH, day 3, XRPD) was “Unchanged” and the Purity % ([1]; 25°C/95±5%RH, day 3, open vial) was 98.66%. For the same compound, the Appearance ([1]; 25°C/95±5%RH, day 7) was “Unchanged”, the “Crystalline Form” value ([1]; 25°C/95±5%RH, day 7, XRPD) was “Unchanged” and the Purity % ([1]; 25°C/95±5%RH, day 7, open vial) was 98.67%. For the same compound, the Appearance ([1]; 40°C/75%RH, day 3) was “Unchanged”, the “Crystalline Form” value ([1]; 40°C/75%RH, day 3, XRPD) was “Unchanged” and the Purity % ([1]; 40°C/75%RH, day 3, open vial) was 98.66%. For the same compound, the Appearance ([1]; 40°C/75%RH, day 7) was “Unchanged”, the “Crystalline Form” value ([1]; 40°C/75%RH, day 7, XRPD) was “Unchanged” and the Purity % ([1]; 40°C/75%RH, day 7, open vial) was 98.59%. For the same compound, the Appearance ([1]; 60 °C, day 3) was “Unchanged”, the “Crystalline Form” value ([1]; 60 °C, day 3, XRPD) was “Unchanged” and the Purity % ([1]; 60 °C, day 3, open vial) was 98.68%. The Appearance ([1]; 60 °C, day 7) was “Unchanged”, the “Crystalline Form” value ([1]; 60 °C, day 7, XRPD) was “Unchanged” and the Purity % ([1]; 60 °C, day 7, open vial) was 98.66%. The Appearance ([1]; 80 °C, day 1) was “Unchanged”, the “Crystalline Form” value ([1]; 80 °C, day 1, XRPD) was “Unchanged” and the Purity % ([1]; 80 °C, day 1, open vial) was 98.71%. For the same compound, the Appearance ([1]; 80 °C, day 3) was “Unchanged”, the “Crystalline Form” value ([1]; 80 °C, day 3, XRPD) was “Unchanged” and the Purity % ([1]; 80 °C, day 3, open vial) was 98.68%. For the same compound, the Purity % ([1]; day 0 (baseline before storage), mean of 3 parallel experiments) was 98.74%, the “crystalline form and chemical purity” value ([1]; under the five storage conditions) was “did not change significantly” and the “in vivo exposure in rats compared with free base crystalline form I” value [2] was “higher”. The “Solubility” value ([3]; FaSSIF, 0.5 h, 30 min) was >5000 µg/mL, the “Solubility” value ([3]; FaSSIF, 2 h, 120 min) was > 5000 µg/mL and the “Solubility” value ([3]; FaSSIF, 24 h, 1440 min) was 3990 µg/mL. The “Solubility” value ([3]; FeSSIF, 0.5 h, 30 min) was > 5020 µg/mL, the “Solubility” value ([3]; FeSSIF, 2 h, 120 min) was > 5020 µg/mL and the “Solubility” value ([3]; FeSSIF, 24 h, 1440 min) was > 5020 µg/mL. The “Solubility” value ([3]; H2O, 0.5 h, 30 min) was 1910 µg/mL, the “Solubility” value ([3]; H2O, 2 h, 120 min) was 1990 µg/mL and the “Solubility” value ([3]; H2O, 24 h, 1440 min) was 2440 µg/mL. For the same compound, the “Solubility” value ([3]; SGF, 0.5 h, 30 min) was > 5040 µg/mL, the “Solubility” value ([3]; SGF, 2 h, 120 min) was > 5040 µg/mL and the “Solubility” value ([3]; SGF, 24 h, 1440 min) was > 5040 µg/mL. For the same compound, the AUC(0-t) (in vivo) was 1700 ng·h/mL, the Cmax (in vivo) was 126 ng/mL and the Tmax (in vivo) was 5 h. For the same compound, the half-life (in vivo) was 3.01 h.

In the case of `C=CC(=O)Nc1cc(Nc2ncc(C(=O)OC(C)C)c(-c3cn(C)c4ccccc34)n2)c(OC)cc1N(C)CCN(C)C` [TAK-788], the objective response rate [4] is given as 43%.
